ChEMBL document CHEMBL1201862, “PubChem BioAssay data set” (2004)
Calls of active or inactive are those of the source.

What was measured:
[1] = target: Transthyretin (Homo sapiens, UniProt P02766); assay: Luminescence-based cell-based high throughput dose response assay to identify activators of Transthyretin (TTR) transcription.; assay type: functional
[2] = M. tuberculosis growth inhibition, HTS (AID 449762); assay type: functional
[3] = microbe, parasite or virus in culture; assay type: functional; details: Mycobacterium tuberculosis
[4] = target: Genome polyprotein (Hepatitis C virus, UniProt Q2Q167); assay: HCV core protein dimerization inhibitors, dose response, biochemical, TR-FRET (AID 2159); parameters: species or system Hepacivirus hominis;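 also: blocks dimerization of HCV core protein measured by TR-FRET between tagged core106 pairs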
[5] = target: T1, Tyrosine-protein phosphatase non-receptor type 7 (Homo sapiens, UniProt P35236); assay: inhibitors of human HePTP phosphatase, […], biochemical, absorbance, leukemia target (AID 521); assay type: functional
T1 sequence (P35236 whole entry): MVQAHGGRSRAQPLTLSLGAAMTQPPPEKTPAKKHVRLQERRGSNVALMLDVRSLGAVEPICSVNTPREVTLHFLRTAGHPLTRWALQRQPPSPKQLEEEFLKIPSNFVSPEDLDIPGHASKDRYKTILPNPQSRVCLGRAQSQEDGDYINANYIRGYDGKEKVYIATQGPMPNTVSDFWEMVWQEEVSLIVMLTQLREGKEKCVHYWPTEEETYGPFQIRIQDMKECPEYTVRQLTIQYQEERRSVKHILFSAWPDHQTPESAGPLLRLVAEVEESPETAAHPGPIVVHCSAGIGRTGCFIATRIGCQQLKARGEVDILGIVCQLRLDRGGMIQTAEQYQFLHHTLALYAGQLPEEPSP

[6] = target: Glutathione-S-transferase (Schistosoma japonicum, UniProt Q26513); assay: biotin-GST/anti-GST TR-FRET signal inhibitors, dose response, artefact control for Vif-APOBEC3G degradation inhibitor project, biochemical (AID 1117362); assay type: functional
[7] = target: NAD-dependent protein deacylase sirtuin-5, mitochondrial (Homo sapiens, UniProt Q9NXA8); assay: SIRT5 desuccinylase inhibitors, dose response, biochemical, fluorescence imaging, cherry-pick, set 5 (AID 720591);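 also: desuccinylation of succinyl peptide AMC substrate read as fluorescence after trypsin release; potency of inhibitors that lower fluorescence and may act on trypsin instead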
[8] = Luminescent dose response cell-based high throughput screening assay for inhibitors of the Janus kinase 2 mutant JAK2V617F. [Related pubchem assays: 1446 (Primary screen.), 1521 (Confirmation assay.), 1486 (Counter screen.)]; assay type: functional
[9] = tested on: INS1; assay: beta cell apoptosis inhibitors, cytokine rescue, dose response, luminescence, retest (AID 449756); assay type: functional, cell-based; details: Rattus norvegicus;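 also: cell death triggered by IL-1 beta plus TNF-alpha plus IFN-gamma mixture; protective hits raise ATP signal compared with cytokine alone wells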
[10] = tested on: Vero; assay: cells; assay type: functional, cell-based; details: Chlorocebus sabaeus
[11] = tested on: Vero; assay: cells; assay type: functional; details: Chlorocebus sabaeus
[12] = target: Paired box protein Pax-8 (Homo sapiens, UniProt Q06710); assay: inhibitors of PAX8-driven TPO luciferase reporter, dose response, RMG-I cells, cherry-pick (AID 687027); assay type: functional, cell-based;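 also: luciferase reporter driven by Pax8 target thyroperoxidase promoter measured by SteadyGlo luminescence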
[13] = PAX2 cell-based inhibition, dose response, selectivity assay for PAX8 inhibitor project, plate reader, dry powder samples (AID 743048); assay type: functional;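 also: HEK293 cells carrying a WT1 promoter luciferase reporter driven by expressed Pax2; potency is for inhibition of Pax2 driven reporter signal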
[14] = PAX5 activity inhibitors, dose response, selectivity assay for PAX8 inhibitor project, cell-based, plate reader, dry powder samples (AID 743047); assay type: functional;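 also: HEK293 cells carrying a Pax5 driven CD19 promoter luciferase reporter; potency of inhibitors that lower reporter luminescence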
[15] = cytotoxicity dependent on PAX8, dose response, cell-based, plate reader, dry powder (AID 743049); assay type: functional
[16] = target: Sphingosine 1-phosphate receptor 2 (Homo sapiens, UniProt O95136); assay: Dose Response Cell Based Assay for Agonists of the S1P2 Receptor. [Related pubchem assays: 729, 736, 843 ]; assay type: functional
[17] = target: Peroxisome proliferator-activated receptor gamma/Nuclear receptor corepressor 2 (Homo sapiens, UniProt P37231+Q9Y618); assay: Counterscreen for NR2E3 inverse agonists: TR-FRET-based biochemical high throughput dose response assay to identify inverse agonists of the interaction between peroxisome proliferator-activated receptor gamma (PPARg) and nuclear receptor co-repressor 2 (NCOR2).; assay type: functional
[18] = target: Photoreceptor-specific nuclear receptor (Homo sapiens, UniProt Q9Y5X4); assay: NR2E3 inverse agonists, dose response, biochemical, TR-FRET (AID 463256); assay type: functional
[19] = target: T2, Endoribonuclease toxin MazF (Escherichia coli K-12, UniProt P0AE70); assay: MazF endoribonuclease activators, SAR follow-up, biochemical, fluorescence, single-stranded RNA substrate (AID 588603); assay type: functional
T2 sequence (P0AE70 whole entry): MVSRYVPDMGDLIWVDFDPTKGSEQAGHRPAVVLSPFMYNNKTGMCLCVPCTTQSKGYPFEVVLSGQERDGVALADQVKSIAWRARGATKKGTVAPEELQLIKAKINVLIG

[20] = target: T2, Endoribonuclease toxin MazF; assay: MazF toxin RNase activators, dose response, biochemical, fluorescence, single-stranded RNA substrate, uHTS hits (AID 588481); assay type: functional
[21] = tested on: MEF; assay: SAR analysis of small molecule cytotoxicity of MazEF TA System activators in embryonic fibroblast (MEF) cells. [Related pubchem assays (depositor defined):AID504720, AID504743]; assay type: functional; details: Mus musculus
[22] = target: T2, Endoribonuclease toxin MazF; assay: SAR analysis of small molecule activators of the MazEF TA System via a fluorescence-based single-stranded RNase assay counterscreen. [Related pubchem assays (depositor defined):AID504720, AID504743]; assay type: functional
[23] = target: T2, Endoribonuclease toxin MazF; assay: fluorescent RNA oligo signal without MazF, dose response, counter-screen for MazEF activator project, biochemical, fluorescence, single-stranded RNase substrate (AID 588502); assay type: functional
[24] = target: Cytochrome P450 3A4 (Homo sapiens, UniProt P08684);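 also: CYP3A4 tested as one member of a cytochrome P450 panel screen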
[25] = target: Cytochrome P450 2C9 (Homo sapiens, UniProt P11712)
Cytochrome P450 2C9, sequence (P11712 whole entry): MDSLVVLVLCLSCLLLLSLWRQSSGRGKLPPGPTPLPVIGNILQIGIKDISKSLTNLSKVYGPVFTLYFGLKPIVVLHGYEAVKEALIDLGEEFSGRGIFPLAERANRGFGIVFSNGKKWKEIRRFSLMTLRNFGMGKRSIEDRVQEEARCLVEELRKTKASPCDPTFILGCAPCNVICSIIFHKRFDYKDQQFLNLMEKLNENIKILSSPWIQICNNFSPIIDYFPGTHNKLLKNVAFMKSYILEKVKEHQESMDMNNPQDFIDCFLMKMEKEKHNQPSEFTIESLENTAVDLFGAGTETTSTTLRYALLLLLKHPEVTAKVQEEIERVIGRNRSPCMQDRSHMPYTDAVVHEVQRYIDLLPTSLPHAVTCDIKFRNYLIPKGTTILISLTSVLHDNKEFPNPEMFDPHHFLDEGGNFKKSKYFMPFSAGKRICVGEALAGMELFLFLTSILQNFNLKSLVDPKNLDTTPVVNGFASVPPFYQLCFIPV

Glutathione-S-transferase, sequence (Q26513 whole entry): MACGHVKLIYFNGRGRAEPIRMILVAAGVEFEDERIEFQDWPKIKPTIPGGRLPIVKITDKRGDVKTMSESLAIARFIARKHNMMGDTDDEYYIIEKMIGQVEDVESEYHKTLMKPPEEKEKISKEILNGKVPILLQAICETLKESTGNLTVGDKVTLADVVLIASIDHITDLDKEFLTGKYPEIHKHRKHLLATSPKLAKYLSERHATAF
Peroxisome proliferator-activated receptor gamma/Nuclear receptor corepressor 2, sequence (P37231 whole entry): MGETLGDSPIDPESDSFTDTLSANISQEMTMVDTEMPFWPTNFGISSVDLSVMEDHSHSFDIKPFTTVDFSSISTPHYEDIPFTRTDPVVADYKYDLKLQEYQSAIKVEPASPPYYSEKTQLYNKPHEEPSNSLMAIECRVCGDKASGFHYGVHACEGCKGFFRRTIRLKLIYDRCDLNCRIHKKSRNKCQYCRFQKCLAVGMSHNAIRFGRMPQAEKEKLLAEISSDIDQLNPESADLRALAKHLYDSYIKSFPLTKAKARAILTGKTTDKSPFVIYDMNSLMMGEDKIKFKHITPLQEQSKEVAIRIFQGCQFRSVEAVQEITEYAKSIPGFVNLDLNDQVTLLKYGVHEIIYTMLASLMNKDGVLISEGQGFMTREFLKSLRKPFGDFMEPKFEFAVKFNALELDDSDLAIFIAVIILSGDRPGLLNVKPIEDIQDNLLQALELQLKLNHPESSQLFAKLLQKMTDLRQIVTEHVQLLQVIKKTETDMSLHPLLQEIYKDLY
Peroxisome proliferator-activated receptor gamma/Nuclear receptor corepressor 2, sequence (Q9Y618 whole entry): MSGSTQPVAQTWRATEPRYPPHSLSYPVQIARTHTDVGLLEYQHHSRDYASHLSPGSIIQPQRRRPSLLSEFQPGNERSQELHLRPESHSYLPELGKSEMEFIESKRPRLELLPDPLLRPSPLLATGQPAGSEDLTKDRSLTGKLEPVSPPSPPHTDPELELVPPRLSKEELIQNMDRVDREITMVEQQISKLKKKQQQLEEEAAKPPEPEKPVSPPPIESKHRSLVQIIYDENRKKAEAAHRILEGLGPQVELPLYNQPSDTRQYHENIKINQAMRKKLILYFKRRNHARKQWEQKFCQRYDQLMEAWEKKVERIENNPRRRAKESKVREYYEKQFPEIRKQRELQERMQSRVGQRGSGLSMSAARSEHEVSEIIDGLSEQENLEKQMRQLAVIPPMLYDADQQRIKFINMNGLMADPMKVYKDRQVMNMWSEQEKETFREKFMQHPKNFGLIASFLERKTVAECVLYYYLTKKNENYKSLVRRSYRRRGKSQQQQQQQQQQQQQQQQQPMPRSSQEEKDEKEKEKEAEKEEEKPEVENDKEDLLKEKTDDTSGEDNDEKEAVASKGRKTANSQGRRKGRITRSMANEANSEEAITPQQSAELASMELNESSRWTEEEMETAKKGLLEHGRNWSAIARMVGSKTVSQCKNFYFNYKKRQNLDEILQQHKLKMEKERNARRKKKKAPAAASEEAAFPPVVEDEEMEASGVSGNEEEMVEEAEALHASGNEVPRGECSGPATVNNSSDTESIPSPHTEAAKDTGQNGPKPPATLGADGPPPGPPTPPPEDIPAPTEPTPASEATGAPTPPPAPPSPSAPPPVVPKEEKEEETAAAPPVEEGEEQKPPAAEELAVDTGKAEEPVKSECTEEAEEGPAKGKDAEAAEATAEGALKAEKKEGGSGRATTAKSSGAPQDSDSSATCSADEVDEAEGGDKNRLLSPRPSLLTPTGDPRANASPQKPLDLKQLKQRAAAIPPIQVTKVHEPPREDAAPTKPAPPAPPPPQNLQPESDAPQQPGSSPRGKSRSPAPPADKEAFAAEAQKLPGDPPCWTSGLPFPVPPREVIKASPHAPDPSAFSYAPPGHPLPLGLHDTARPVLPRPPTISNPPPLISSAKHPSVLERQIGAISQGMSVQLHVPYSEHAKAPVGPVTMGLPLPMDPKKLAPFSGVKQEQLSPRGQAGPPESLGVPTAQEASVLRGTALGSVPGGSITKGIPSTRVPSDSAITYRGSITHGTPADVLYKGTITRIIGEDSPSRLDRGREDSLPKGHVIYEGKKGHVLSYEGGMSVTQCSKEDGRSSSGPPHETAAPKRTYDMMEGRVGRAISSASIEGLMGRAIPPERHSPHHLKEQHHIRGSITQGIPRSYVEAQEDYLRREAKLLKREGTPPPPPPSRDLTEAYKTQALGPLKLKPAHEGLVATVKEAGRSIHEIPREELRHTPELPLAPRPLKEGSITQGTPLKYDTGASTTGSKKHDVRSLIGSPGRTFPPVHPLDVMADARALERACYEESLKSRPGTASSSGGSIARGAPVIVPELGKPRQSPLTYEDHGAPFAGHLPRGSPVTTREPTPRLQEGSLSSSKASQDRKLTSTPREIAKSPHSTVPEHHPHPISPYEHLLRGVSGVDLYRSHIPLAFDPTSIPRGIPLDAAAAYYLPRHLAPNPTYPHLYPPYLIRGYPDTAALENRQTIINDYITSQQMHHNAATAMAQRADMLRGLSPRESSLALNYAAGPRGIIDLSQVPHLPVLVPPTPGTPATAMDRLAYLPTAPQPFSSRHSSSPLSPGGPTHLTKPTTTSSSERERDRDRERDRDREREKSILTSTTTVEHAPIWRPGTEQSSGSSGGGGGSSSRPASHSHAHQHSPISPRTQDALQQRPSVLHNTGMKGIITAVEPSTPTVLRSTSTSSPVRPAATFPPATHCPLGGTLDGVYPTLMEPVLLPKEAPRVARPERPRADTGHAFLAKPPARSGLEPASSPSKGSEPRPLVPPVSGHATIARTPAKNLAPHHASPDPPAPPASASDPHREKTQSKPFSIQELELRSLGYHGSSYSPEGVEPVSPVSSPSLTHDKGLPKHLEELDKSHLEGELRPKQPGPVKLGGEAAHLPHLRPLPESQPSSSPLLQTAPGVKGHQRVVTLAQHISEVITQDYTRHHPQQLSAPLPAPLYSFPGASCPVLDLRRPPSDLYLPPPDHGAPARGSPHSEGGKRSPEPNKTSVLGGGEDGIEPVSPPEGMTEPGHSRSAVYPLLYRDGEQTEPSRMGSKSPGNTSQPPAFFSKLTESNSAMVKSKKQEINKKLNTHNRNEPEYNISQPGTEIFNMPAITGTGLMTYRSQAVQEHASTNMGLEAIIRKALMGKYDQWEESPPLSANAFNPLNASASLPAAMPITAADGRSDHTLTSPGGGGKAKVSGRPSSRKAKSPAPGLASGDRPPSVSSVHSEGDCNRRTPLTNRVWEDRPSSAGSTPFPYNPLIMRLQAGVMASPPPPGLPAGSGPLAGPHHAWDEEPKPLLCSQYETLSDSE
NAD-dependent protein deacylase sirtuin-5, mitochondrial, sequence (Q9NXA8 whole entry): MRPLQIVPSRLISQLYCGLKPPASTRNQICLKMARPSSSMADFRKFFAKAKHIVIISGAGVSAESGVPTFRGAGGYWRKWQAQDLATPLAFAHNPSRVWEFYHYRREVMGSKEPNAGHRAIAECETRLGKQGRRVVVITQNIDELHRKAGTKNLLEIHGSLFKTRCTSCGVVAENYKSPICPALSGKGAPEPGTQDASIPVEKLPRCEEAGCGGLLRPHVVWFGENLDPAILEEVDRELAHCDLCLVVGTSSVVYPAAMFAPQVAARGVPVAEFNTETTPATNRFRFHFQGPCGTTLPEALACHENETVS
Cytochrome P450 3A4, sequence (P08684 whole entry): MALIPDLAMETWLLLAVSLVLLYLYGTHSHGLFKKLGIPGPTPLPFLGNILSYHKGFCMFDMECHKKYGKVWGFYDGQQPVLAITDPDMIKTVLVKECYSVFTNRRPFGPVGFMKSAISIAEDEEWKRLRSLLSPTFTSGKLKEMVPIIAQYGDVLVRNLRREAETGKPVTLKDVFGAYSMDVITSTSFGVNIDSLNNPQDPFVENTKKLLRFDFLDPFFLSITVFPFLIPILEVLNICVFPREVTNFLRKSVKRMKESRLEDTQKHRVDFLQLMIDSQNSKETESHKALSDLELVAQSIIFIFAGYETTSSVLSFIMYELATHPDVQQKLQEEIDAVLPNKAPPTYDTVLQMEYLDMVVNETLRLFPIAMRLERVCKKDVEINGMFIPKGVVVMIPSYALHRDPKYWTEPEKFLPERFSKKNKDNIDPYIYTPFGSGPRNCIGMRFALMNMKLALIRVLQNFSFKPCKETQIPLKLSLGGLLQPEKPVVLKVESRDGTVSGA
Genome polyprotein, sequence (Q2Q167 whole entry): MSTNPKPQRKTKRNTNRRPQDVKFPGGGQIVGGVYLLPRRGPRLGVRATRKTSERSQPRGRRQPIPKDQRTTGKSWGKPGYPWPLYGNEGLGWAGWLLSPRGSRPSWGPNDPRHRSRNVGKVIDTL
Sphingosine 1-phosphate receptor 2, sequence (O95136 whole entry): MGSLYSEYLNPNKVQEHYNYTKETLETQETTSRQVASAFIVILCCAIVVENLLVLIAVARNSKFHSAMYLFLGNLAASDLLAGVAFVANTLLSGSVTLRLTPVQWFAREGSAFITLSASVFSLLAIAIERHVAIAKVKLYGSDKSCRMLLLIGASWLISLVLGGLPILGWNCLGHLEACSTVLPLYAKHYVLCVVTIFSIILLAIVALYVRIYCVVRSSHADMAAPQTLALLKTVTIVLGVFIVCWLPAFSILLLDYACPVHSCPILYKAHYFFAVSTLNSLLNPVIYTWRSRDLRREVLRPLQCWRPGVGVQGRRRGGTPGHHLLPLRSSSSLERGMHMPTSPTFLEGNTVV

## Oc1cc(O)c2sc(Nc3ccc(Cl)c(F)c3)nc2n1
[1]
  EC50: > 167 µM (inactive)

## COc1cc2c(-c3ccc4[nH]ccc4c3)c(-c3ccc(C#N)cc3)oc(=O)c2cc1OC
[2]
  IC50: > 100 µM (active)
[3]
  CC50: > 40 µM (active)

## CC1(C)Cc2c(C#N)c(N3CCN(C(=O)c4ccco4)CC3)nc(-c3ccco3)c2CS1
[4]
  IC50: > 49.8 µM (not active)

## O=c1c2c3c(sc2nc2n1CCC2)CCC3
[5]
  IC50: > 100 µM (not active)

## Cn1cnnc1SC/C(O)=C(\C#N)c1nc2ccccc2[nH]1
[6]
  IC50: > 100 µM (active)

## CCN1CCN(C(=O)c2ccc(C(F)(F)F)cc2)CC1
[7]
  AC50: > 30 µM (inactive)

## c1ccc2c(CN3CCCCCC3)c[nH]c2c1
[8]
  IC50: 0.702 µM (active)
[9]
  AC50: 4.09 µM (active)

## O=C1/C(=C/c2ccccc2)SC(=S)N1CC(=O)N1CCCCC1c1cccnc1 (stereo not given)
[10]
  IC50: > 25 µM (active)
[11]
  CC50: 14.6 µM (active)
[12]
  AC50: 4.37 µM (active)
[13]
  AC50: 70.7 µM (active)
[14]
  AC50: 61.9 µM (active)
[15]
  AC50: 42.1 µM (active)

## Cc1ccc(Cn2cccc(-c3nc4ccccc4s3)c2=O)cc1
[16]
  EC50: 4.14 µM (active)

## O=C(CSc1nc(-c2ccccc2)nc2ccccc12)Nc1nccs1
[17]
  IC50: > 39.8 µM (not active)
[18]
  IC50: 5.93 µM (active)
[19]
  EC50: 29.1 µM (inactive)
[20]
  EC50: 20.7 µM (inactive)
[21]
  CC50: 29.7 µM (active)
[22]
  EC50: > 99 µM (inactive)
[23]
  EC50: 45 µM (inactive)
[24]
  AC50: 1 µM (inconclusive)
[25]
  AC50: 0.631 µM (inconclusive)
